The values below come from patent US6391887B1, “3,4-Dihydroquinoline derivatives as nitrogen monoxide synthase (NOS) inhibitors” (Schering Aktiengesellschaft, priority 1998, dated 2002).

Molecules are shown by their SMILES.

The assay deals with bNOS (UniProt P29475). Briefly: bNOS inhibition (method of Bredt and Snyder). The assay is classed as biochemical. The text has this:
The NOS-inhibitory action of the compounds of Formula (I) and their physiologically compatible salts can be determined according to the methods by Bredt and Snyder in Proc. Natl. Acad. Sci. USA (1989) 86, 9030-9033.

Turning to `NC1=Nc2cc(N3CCOCC3)ccc2C2CCCC12` (centres unmarked) [Example 21, 4-Amino-7-(4-morpholinyl)-2,3,3a,9b-tetrahydro-1H-cyclopenta[c]quinoline], the IC50 (as a rule, the concentration at which inhibition is half-maximal) amounted to 1400 nM.

`COC(=O)CCc1ccc2c(c1)N=C(N)C1CCCC21` (centres unmarked) [Example 22, 4-Amino-7-(methoxycarbonylethyl)-2,3,3a,9b-tetrahydro-1H-cyclopenta[c]quinoline] returned an IC50 of 1100 nM.
